Data set [1] has as its system A549 lung cancer cells. The data set can be described thus: MTT assay (cell viability; CI and SI derived from it). In kind it is cell-based, human. As to conditions: A549, max tested 100 μM, combinations: Ru-PIP gradient with fixed Olaparib. The protocol:
(§1) Cells were seeded in 96-well plates at 5 × 10^3 cells/well and allowed to adhere overnight. […] For drug combination treatment, cells were treated with concentration gradient of Ru-PIP (3.125–100 µM) in combination with Olaparib (5 or 10 µM). After 24, 48 or 72 h incubation, 0.5 mg/ml thiazolyl blue tetrazolium bromide (MTT) dissolved in 1X PBS was added to each well and cells were incubated at 37 °C for 4 h. 100 µl of DMSO was added to each well to solubilize the reduced purple formazan crystals formed. Next, the absorbance at 570 nm (630 nm as reference wavelength) was measured using a microplate reader. The half maximal inhibitory concentration (IC50) for each compound was determined using GraphPad Prism software. Additionally, selectivity indices (SI) were determined by the ratio between IC50 of normal cells and that of cancer cells.
(§2) Based on the data obtained from MTT assay, combination indices (CI) were determined using Calcusyn and CompuSyn software (Biosoft, Cambridge, UK). This is based on the established drugs combination method by Chou and Talalay[30],[31]. CI values indicate the type of drugs interaction in which CI < 0.9 indicates synergism, CI = 0.9–1.0 indicates additive and CI > 1.0 indicates antagonism. GraphPad Prism software was used to generate a three-color scale based on CI values obtained, where synergism is represented by green, additive by yellow, and antagonism by red in which the colors of each CI value were interpolated in between these constraints accordingly.

Data set [2] has as its system H1975 lung cancer cells. The description is as above. The format is cell-based, human. As to conditions: for IC50: H1975, max tested 100 μM, combinations: Ru-PIP gradient with fixed Olaparib. The protocol:
as §1, §2

Data set [3] concerns T24 bladder cancer cells. The description is as above. The format is cell-based, human. The settings on record: T24, max tested 100 μM, combinations: Ru-PIP gradient with fixed Olaparib. How it is done:
as §1, §2

The test system of data set [4] is MRC5 normal human lung fibroblasts. The data set can be described thus: MTT assay (cell viability). As to conditions: max tested 100 μM, combinations: Ru-PIP gradient with fixed Olaparib. In kind it is cell-based. The protocol: as §1
(In general: Tetrazolium assays rely on reduction of a dye to a coloured formazan, in cell work by metabolically active cells.)

The subject of data set [5] is A549, H1975 and T24 cells. In words: MTT assay, summary statements over the cancer cell lines. The format is cell-based, human. The settings on record: Homo sapiens; 72 h; A549, H1975 and T24 cells together; read-out: 72 h IC50 on the tested cancer cells. The protocol: as §1
Data set [6] concerns A549 cells. The data set can be described thus: Wound healing assay. The format is cell-based, human. The settings on record: Olaparib 5 µM. How it is done: Lung cancer cells were seeded at density of 5 × 10^5 cells/well in a 6-well plate and were incubated in the incubator until a confluent monolayer of cells formed. After serum-starved for 4 h, a straight scratch was made in each well with a sterile 200 µl pipette tip, solution was removed, and each well was washed with 1X PBS twice. Cells were treated with Ru-PIP (25 µM), Olaparib (5 µM) or both. Cells migration in the wound scratch area was photographed at 0, 24, 48 and 72 h timepoints. Images were photographed at 10 × magnification using a camera attached microscope and were analyzed using ImageJ software. The percentage of wound scratch closure was determined by measuring the reduction in the wound area at each time point by comparing to 0 h (100%).

For data set [7], the system named is A549 cells. In words: Cell cycle analysis (PI staining, flow cytometry). The format is cell-based, human. As to conditions: Ru-PIP 25 µM, Olaparib 5 µM or both, 24 h. The protocol:
Lung cancer cells were seeded in 6-well plate at density of 1 × 10^5 cells/well and allowed to adhere overnight. Cells were treated with Ru-PIP (25 µM), Olaparib (5 µM) or both. After 24 or 48 h incubations, cells were harvested, washed with 1X PBS twice, and fixed with ice-cold 70% ethanol at least overnight at − 20 °C. The fixed cells were collected by centrifugation at 1,000 rpm for 5 min and the resulting pellets were washed with 1X PBS twice. The samples were resuspended in 500 µl PBS and treated with 5 µl RNase A solution (10 mg/ml) for 15 min at RT. After incubation, the samples were stained with 2 µl of propidium iodide (PI) solution (5 mg/ml) at RT, in the dark. Samples were acquired, and cell cycle distribution was analyzed using NovoCyte flow cytometer and NovoExpress software. For each sample, a minimum of 10,000 cells were counted and analyzed.
(Flow cytometry measures light scatter and fluorescence of single cells or particles in a stream.)

For data set [8], the system named is A549 cells. The data set can be described thus: Apoptosis annexin V-FITC assay. The format is cell-based, human. As to conditions: 24 h, Ru-PIP 25 µM or Olaparib 5 µM. The protocol:
Lung cancer cells were seeded in 6-well plate at 1 × 10^5 cells/well and allowed to adhere overnight. Cells were treated with Ru-PIP (25 µM), Olaparib (5 µM) or both. After 24 or 48 h incubations, cells were harvested, washed with 1X PBS twice and 500 µl of 1X binding buffer was added to the samples. After, the samples were incubated with 5 µl Annexin V-FITC (Invitrogen) for 20 min at RT. Prior to flow cytometric analysis, 5 µl of PI was added. Samples were acquired was analyzed using NovoCyte flow cytometer and NovoExpress software. For each sample, a minimum of 10,000 cells were counted and analyzed.

The subject of data set [9] is A549 spheroids. In words: Spheroids growth inhibition studies. The format is cell-based, human. As to conditions: Ru-PIP 25 µM, Olaparib 5 µM or both, 12 days after treatment initiation. The protocol:
Spheroids establishment was attempted for A549 lung cancer cells using hanging drop method. 20 µL of cell suspension containing 2000, 4000, 6000, 8000 and 10,000 cells were dropped onto the surface of petri dish lid and incubated at 37 °C, such that each drop will contain single spheroid. After three days of incubation, each spheroid formed was transferred onto agarose-coated (50 µL, 0.6%) 96-well plates containing 80 µL growth media and further incubated for 15 days at 37 °C, such that each well contained a single spheroid. Formation of spheroids was observed and imaged every three days using a light microscope with a 4 × objective lens connected to a digital camera. During growth, 50% of the media was replaced every three days. The growth in volume of each spheroid was determined according to a published method. At least six spheroids were grown per seeding density for each independent experiment.
Spheroids were grown as described initially. Initial cell seeding density was chosen such that each spheroid reached a diameter of approximately 400 μm after three days (4,000 cells/well for A549 cells). After spheroids formation, spheroids were incubated with Ru-PIP (25 µM), Olaparib (5 µM) or both for a period of 12 days. The structural integrity of spheroids upon treatment was observed and imaged for every three days using a light microscope with a 4 × objective lens connected to a digital camera, and the volume of each spheroid was measured according to a published method. Prior to imaging, 50% of treatment-containing medium was replaced (every three days). At least six spheroids were grown per treatment for each independent experiment.

Data set [10] in a line: in vivo. The settings on record: zebrafish, in vivo. The protocol:
(§3) The newly fertilized eggs at less than 1 hpf (hours post fertilization) were collected, washed with deionized water and incubated at RT (28 ± 1 °C) in Danio-SprintM embryo media. […] Untreated control consisting of Danio-SprintM embryo media containing 0.1% DMSO. 24 embryos were used in total for each concentration per treatment of two independent experiments (n = 24). The zebrafish embryos development was observed and imaged using a light microscope attached to a digital camera at 24, 48, 72 and 96 hpf (hours post fertilization). Four lethal endpoints were evaluated including coagulated embryos, lack of somite formation, non-detachment of the tail and lack of heartbeat. All these characteristics were recorded every 24 hpf, except heartbeat, which is visible after 48 hpf. […] Hatching which is also considered as a sensitive endpoint toxicity parameter was also observed in which hatching normally occurs at 48 to 72 hpf.

The subject of data set [11] is zebrafish embryos. In words: Acute toxicity test on zebrafish embryos (OECD Test No. 236). As to conditions: zebrafish embryos; > 25 mg/L. How it is done:
as §3

As a reminder, the IC50 is the concentration that inhibits the measured activity by half. A word on the LC50: it is the concentration lethal to half of the exposed cells or organisms. A lower LC50 goes with a more lethal substance.

Structures are written as SMILES.

As for `N.N.[Cl][Pt][Cl]` [Cisplatin, cis-diamminedichloroplatinum(II)], the IC50 in [1] (24 h) was 6.6 ± 2 µM; in data set [1] (48 h), 4.8 ± 0.5 µM; in [1] (72 h), 2.9 ± 1.2 µM; in data set [2] (24 h) it was 26.6 ± 9.9 µM; in data set [2] (48 h) it was 20 ± 6.7 µM; in data set [2] (72 h), 13.5 ± 5.7 µM. The IC50 in data set [3] (24 h) is 59.6 ± 7 µM; in data set [3] (48 h), 20.8 ± 7.2 µM; in data set [3] (72 h), 7.3 ± 1.1 µM; in [4] (24 h) it was 13.5 ± 2.4 µM; in data set [4] (48 h), 9.5 ± 1.2 µM; in data set [4] (72 h), 7.4 ± 2 µM.
As to `O=C(c1cc(Cc2n[nH]c(=O)c3ccccc23)ccc1F)N1CCN(C(=O)C2CC2)CC1` [Olaparib], the IC50 in data set [1] (Homo sapiens, 24 h) was above 100 µM; in data set [1] (Homo sapiens, 48 h) it was above 100 µM; in data set [1] (Homo sapiens, 72 h), above 100 µM; in data set [2] (Homo sapiens, NCI-H1975, 24 h), above 100 µM; in data set [2] (Homo sapiens, NCI-H1975, 48 h), above 100 µM; in [2] (Homo sapiens, NCI-H1975, 72 h), 71.7 ± 11.8 µM. For the same molecule, the IC50 in data set [3] (Homo sapiens, 24 h) was above 100 µM; in data set [3] (Homo sapiens, 48 h), above 100 µM; in data set [3] (Homo sapiens, 72 h), above 100 µM; in [4] (Homo sapiens, 24 h), above 100 µM; in data set [4] (Homo sapiens, 48 h), above 100 µM; in data set [4] (Homo sapiens, 72 h), above 100 µM. In addition, in [5], the 50% inhibitory concentration (IC50) is above 71.7 µM. The “Selectivity Index (SI) = IC50 normal cells/IC50 cancer cells” value in [2] (MRC5 vs H1975, 72 h) is recorded as above 1.3. For the same molecule, the “impact on cell migration” value in data set [6] was “negligible impact on cell migration”. The cell cycle profile entry in data set [7] is recorded as “comparable cell cycle profile with the untreated control”. Besides, the “levels of apoptotic cells” value in data set [8] is given as “comparable levels of apoptotic cells with untreated control”. Besides, in data set [9], the “structural integrity of pre-formed spheroids” value is given as “remained structurally intact”. For the same molecule, in [10], the LC50 at 96 h is above 100 µg/mL. Also, the “morphological changes of embryos” value in [11] was “substantial morphological abnormalities of pericardial edema, yolk sac edema and spinal deformity”.
